According to patent US11866431B2, “Bicyclic compounds” (Vivace Therapeutics, Inc., priority 2018, dated 2024):

Test system: 8XTBD luciferase reporter (YAP reporter) in HEK293T cells
Assay: YAP Reporter Assay
Type: cell-based
Details: Homo sapiens, HEK-293T; HEK293T cells stably transfected with 8XTBD luciferase reporter and pRLTK; 24-hr incubation; top concentration 3 μM; read-out: Firefly Luciferase IC50
In short: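 HEK293T cells stably carrying 8XTBD firefly luciferase and TK-renilla (3×10^3 cells/well) dosed 3-4 h after plating with compounds from 3 μM final, 1:3 dilution, 10 points, quadruplicates. After 24 h at 37° C, Dual-Glo readings gave IC50 and maximum inhibition reported separately for firefly and renilla.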

Row | Compound | IC50
1 | C[C@@H](NC(=O)c1ccc2c(-c3ccc(C(F)(F)F)cc3)cccc2c1)c1cccc(N(C)C)n1 [Compound 286, (R)—N-(1-(6-(dimethylamino)pyridin-2-yl)ethyl)-5-(4-(trifluoromethyl)phenyl)-2-naphthamide] | < 100 nM
2 | C[C@H](NC(=O)c1ccc2c(-c3ccc(C(F)(F)F)cc3)cccc2c1)c1cccc(N(C)C)n1 [Compound 287, (S)—N-(1-(6-(dimethylamino)pyridin-2-yl)ethyl)-5-(4-(trifluoromethyl)phenyl)-2-naphthamide] | 100 to 1000 nM
3 | O=C(NC1(c2ccccc2)COC1)c1ccc2c(-c3ccc(C(F)(F)F)cc3)cccc2c1 [Compound 288, N-(3-phenyloxetan-3-yl)-5-(4-(trifluoromethyl)phenyl)-2-naphthamide] | < 100 nM
4 | C[C@H](NC(=O)c1ccc2c(-c3ccc(C(F)(F)F)cc3)cccc2c1)C1CC1 [Compound 289, (S)—N-(1-cyclopropylethyl)-5-(4-(trifluoromethyl)phenyl)-2-naphthamide] | < 100 nM
5 | C[C@@H](NC(=O)c1ccc2c(-c3ccc(C(F)(F)F)cc3)cccc2c1)C1CC1 [Compound 290, (R)—N-(1-cyclopropylethyl)-5-(4-(trifluoromethyl)phenyl)-2-naphthamide] | < 100 nM
6 | COc1cc(-c2ccc(C(F)(F)F)cc2)c2ccc(C(=O)NC(CO)c3ccccn3)cc2c1 (stereo not shown) [Compound 291, N-(2-Hydroxy-1-(pyridin-2-yl)ethyl)-7-methoxy-5-(4-(trifluoromethyl)phenyl)-2-naphthamide] | < 100 nM
7 | COc1cc(-c2ccc(C(F)(F)F)cc2)c2ccc(C(=O)N[C@@H](C)c3ccccn3)cc2c1 [Compound 292, (S)-7-Methoxy-N-(1-(pyridin-2-yl)ethyl)-5-(4-(trifluoromethyl)phenyl)-2-naphthamide] | < 100 nM
8 | COc1cc(-c2ccc(C(F)(F)F)cc2)c2ccc(C(=O)N[C@H](C)c3ccccn3)cc2c1 [Compound 293, (R)-7-Methoxy-N-(1-(pyridin-2-yl)ethyl)-5-(4-(trifluoromethyl)phenyl)-2-naphthamide] | < 100 nM
9 | COC[C@H](C)NC(=O)c1ccc2c(-c3ccc(C(F)(F)F)cc3)cc(OC)cc2c1 [Compound 294, (S)-7-Methoxy-N-(1-methoxypropan-2-yl)-5-(4-(trifluoromethyl)phenyl)-2-naphthamide] | < 100 nM
10 | COC[C@@H](C)NC(=O)c1ccc2c(-c3ccc(C(F)(F)F)cc3)cc(OC)cc2c1 [Compound 295, (R)-7-Methoxy-N-(1-methoxypropan-2-yl)-5-(4-(trifluoromethyl)phenyl)-2-naphthamide] | < 100 nM
11 | COc1cc(-c2ccc(C(F)(F)F)cc2)c2ccc(C(=O)N[C@@H](C)CO)cc2c1 [Compound 296, (S)—N-(1-Hydroxypropan-2-yl)-7-methoxy-5-(4-(trifluoromethyl)phenyl)-2-naphthamide] | < 100 nM
12 | COc1cc(-c2ccc(C(F)(F)F)cc2)c2ccc(C(=O)N[C@H](C)CO)cc2c1 [Compound 297, (R)—N-(1-Hydroxypropan-2-yl)-7-methoxy-5-(4-(trifluoromethyl)phenyl)-2-naphthamide] | < 100 nM
13 | CC(C)NC(=O)c1ccc2c(-c3ccc(C(F)(F)F)cc3)cn3ncnc3c2c1 [Compound 298, N-Isopropyl-6-(4-(trifluoromethyl)phenyl)-[1,2,4]triazolo[5,1-a]isoquinoline-9-carboxamide] | 100 to 1000 nM
14 | CC(C)NC(=O)c1ccc2c(-c3ccc(C(F)(F)F)cc3)cn3ccnc3c2c1 [Compound 299, N-Isopropyl-6-(4-(trifluoromethyl)phenyl)imidazo[2,1-a]isoquinoline-9-carboxamide] | 100 to 1000 nM
15 | CC(C)NC(=O)c1ccc2c(-c3ccc(C(F)(F)F)cc3)cc3ncnn3c2c1 [Compound 300, N-Isopropyl-5-(4-(trifluoromethyl)phenyl)-[1,2,4]triazolo[1,5-a]quinoline-8-carboxamide] | 100 to 1000 nM
16 | CC(C)NC(=O)c1ccc2c(-c3ccc(C(F)(F)F)cc3)cc(=O)n(C)c2c1 [Compound 306, N-Isopropyl-1-methyl-2-oxo-4-(4-(trifluoromethyl)phenyl)-1,2-dihydroquinoline-7-carboxamide] | 100 to 1000 nM
17 | CC(C)NC(=O)c1ccc2c(-c3ccc(C(F)(F)F)cc3)cc3nncn3c2c1 [Compound 307, N-Isopropyl-5-(4-(trifluoromethyl)phenyl)-[1,2,4]triazolo[4,3-a]quinoline-8-carboxamide] | 100 to 1000 nM
18 | CS(=O)(=O)/C=C/CCNC(=O)c1ccc2c(-c3ccc(C(F)(F)F)cc3)cccc2c1 [Compound 311, (E)-N-(4-(Methylsulfonyl)but-3-en-1-yl)-5-(4-(trifluoromethyl)phenyl)-2-naphthamide] | < 100 nM
19 | C[C@H](CCN(C)C)NC(=O)c1ccc2c(-c3ccc(C(F)(F)F)cc3)cccc2c1 [Compound 313, N-[(1R)-3-(dimethylamino)-1-methyl-propyl]-5-[4-(trifluoromethyl)phenyl]naphthalene-2-carboxamide] | 100 to 1000 nM
20 | CCNCC[C@@H](C)NC(=O)c1cnc2c(-c3ccc(C(F)(F)F)cc3)cccc2c1 [Compound 316, N-[(1R)-3-(ethylamino)-1-methyl-propyl]-8-[4-(trifluoromethyl)phenyl]quinoline-3-carboxamide] | 100 to 1000 nM

Row | Compound | IC50
21 | C[C@@H](NC(=O)c1cnc2c(-c3ccc(C(F)(F)F)cc3)cccc2c1)C1CN(CC(F)F)C1 [Compound 317, (R)—N-(1-(1-(2,2-difluoroethyl)azetidin-3-yl)ethyl)-8-(4-(trifluoromethyl)phenyl)quinoline-3-carboxamide] | 100 to 1000 nM
22 | C[C@@H](NC(=O)c1cnc2c(-c3ccc(C(F)(F)F)cc3)cccc2c1)C1CN(CCF)C1 [Compound 318, (R)—N-(1-(1-(2-fluoroethyl)azetidin-3-yl)ethyl)-8-(4-(trifluoromethyl)phenyl)quinoline-3-carboxamide] | 100 to 1000 nM
23 | C[C@H](CCN(C)C)NC(=O)c1cnc2c(-c3ccc(C(F)(F)F)cc3)cccc2c1 [Compound 319, N-[(1R)-3-(Dimethylamino)-1-methyl-propyl]-8-[4-(trifluoromethyl)phenyl]quinoline-3-carboxamide] | 100 to 1000 nM
24 | C[C@@H](NC(=O)c1ccc2c(-c3ccc(C(F)(F)F)cc3)cccc2c1)C1CN(C2CC2)C1 [Compound 320, (R)-N-(1-(1-cyclopropylazetidin-3-yl)ethyl)-5-(4-(trifluoromethyl)phenyl)-2-naphthamide] | 100 to 1000 nM
25 | COc1cc(-c2ccc(C(F)(F)F)cc2F)c2ncc(C(=O)O)cc2c1 [Compound 321, 8-(2-fluoro-4-(trifluoromethyl)phenyl)-6-methoxyquinoline-3-carboxylic Acid] | < 100 nM
26 | COc1cc(-c2ccc(C(F)(F)F)cc2)c2ccc(C(=O)O)cc2c1 [Compound 322, 7-methoxy-5-(4-(trifluoromethyl)phenyl)-2-naphthoic Acid] | < 100 nM
27 | O=C(O)c1cnc2c(-c3ccc(C(F)(F)F)cc3)cc(OC3CC3)cc2c1 [Compound 323, 6-cyclopropoxy-8-(4-(trifluoromethyl)phenyl)quinoline-3-carboxylic acid] | < 100 nM
28 | O=C(O)c1cnc2c(-c3ccc(C(F)(F)F)cc3)cc(OC(F)(F)F)cc2c1 [Compound 324, 6-(Trifluoromethoxy)-8-[4-(trifluoromethyl)phenyl]quinoline-3-carboxylic acid] | < 100 nM
29 | COc1cc(-c2ccc(C(F)(F)F)cc2)c2ncc(C(=O)O)cc2c1 [Compound 325, 6-methoxy-8-(4-(trifluoromethyl)phenyl)quinoline-3-carboxylic acid] | < 100 nM
30 | O=C(O)c1cnc2c(-c3ccc(C(F)(F)F)cc3)cc(Cl)c(Cl)c2c1 [Compound 326, 5,6-dichloro-8-(4-(trifluoromethyl)phenyl)quinoline-3-carboxylic Acid] | < 100 nM
31 | CCOc1cc(-c2ccc(C(F)(F)F)cc2)c2ncc(C(=O)O)cc2c1 [Compound 327, 6-ethoxy-8-(4-(trifluoromethyl)phenyl)quinoline-3-carboxylic Acid] | < 100 nM
32 | O=C(O)c1cnc2c(-c3ccc(C(F)(F)F)cc3)cc(F)c(F)c2c1 [Compound 328, 5,6-difluoro-8-(4-(trifluoromethyl)phenyl)quinoline-3-carboxylic Acid] | < 100 nM
33 | O=C(O)c1ccc2c(-c3ccc(S(F)(F)(F)(F)F)cc3)cccc2c1 [Compound 329, 5-[4-(pentafluoro-sulfanyl)phenyl]naphthalene-2-carboxylic Acid] | < 100 nM
34 | O=C(O)c1ccc2c(-c3ccc(C(F)(F)F)cc3)cccc2c1 [Compound 330, 5-[4-(trifluoromethyl)phenyl]naphthalene-2-carboxylic Acid] | < 100 nM
35 | O=C(O)c1ccc2c(-c3ccc(C(F)(F)F)nc3)cccc2c1 [Compound 331, 5-(6-(trifluoromethyl)pyridin-3-yl)-2-naphthoic Acid] | 100 to 1000 nM
36 | O=C(O)c1ccc2c(-c3ccc(C(F)(F)F)s3)cccc2c1 [Compound 332, 5-[5-(trifluoromethyl)-2-thienyl]naphthalene-2-carboxylic acid] | < 100 nM
37 | O=C(O)c1ccc2c(-c3ccc(C(F)(F)F)cc3)cccc2n1 [Compound 333, 5-(4-(trifluoromethyl)phenyl)quinoline-2-carboxylic Acid] | 100 to 1000 nM
38 | O=C(O)c1cnc2c(-c3ccc(C(F)(F)F)cc3)cccc2n1 [Compound 334, 5-(4-(trifluoromethyl)phenyl)quinoxaline-2-carboxylic Acid] | 100 to 1000 nM
39 | O=C(O)c1ccc2c(-c3ccc(C(F)(F)F)cc3)cccc2c1O [Compound 335, 1-hydroxy-5-(4-(trifluoromethyl)phenyl)-2-naphthoic Acid] | < 100 nM
40 | O=C(O)c1ccc2c(-c3ccc(C(F)(F)F)cc3)cncc2c1 [Compound 336, 4-[4-(trifluoromethyl)phenyl]isoquinoline-7-carboxylic Acid] | 100 to 1000 nM
